101 compounds from PubChem BioAssay AID1996 can be followed below.

Each structure is given as a SMILES string. ≈ marks a conversion by molar mass, not a printed value. Some results are limits rather than exact numbers.

For the data set the following is noted: buffer; pH 7.4; 200.0 µM.
Usually kinetic solubility stands for the concentration staying in solution when a stock, usually in DMSO, is diluted into the medium. `CC(=O)c1c(C)[nH]c(C(=O)COC(=O)c2c(-c3ccccc3)noc2C)c1C` registered a kinetic solubility of 2.1 µg/mL (≈ 5.52 µM).
`O=C(NCCc1nc2ccccc2[nH]1)c1ccc([N+](=O)[O-])cc1` came in with a solubility (kinetic) of 8.7 µg/mL (≈ 28 µM).
Take `C=CCNc1nc(N)c([N+](=O)[O-])c(Nc2cccc(Cl)c2)n1`: the solubility (kinetic) came to 0.1 µg/mL (≈ 0.312 µM).
The value for `Cc1ccc(C(=O)NCC(=O)NCCCc2ccccc2)cc1` was above 46.6 µg/mL; that for `CN(C(=O)C(Cl)Cl)c1ccc(OC(=O)c2ccco2)cc1` was above 49.2 µg/mL.
The figure for `CCCCC(=O)OCc1nc2ccccc2s1` is 11.2 µg/mL (≈ 44.9 µM).
The compound `CCOc1cc(N2CCOCC2)c(OCC)cc1NC(=O)c1cccc(S(=O)(=O)N2CCOCC2)c1` displayed a kinetic solubility above 77.9 µg/mL.
`O=C(O)c1csc(-c2cccc(Cl)c2)n1` displayed a kinetic solubility of 33.9 µg/mL (≈ 141 µM).
With `CC(C)CN(C(=O)C1CC1)C1CCS(=O)(=O)C1` (stereo unspecified), the solubility (kinetic) is above 38.9 µg/mL.
The value for `COCCCNC(=O)c1ccc(-c2nc3ccccc3nc2-c2ccccc2)cc1` was 32.4 µg/mL (≈ 81.5 µM); that for `CC(C)CCNC(=O)C1(c2cccs2)CCOCC1` was above 42.2 µg/mL; that for `COc1ccc(C(=O)NCCNc2ccc([N+](=O)[O-])cc2)cc1OC` was 1.7 µg/mL (≈ 4.92 µM).
Regarding `COc1ccc(CCN(C)C/C=C/c2ccccc2)cc1OC`, the kinetic solubility amounted to 30.1 µg/mL (≈ 96.7 µM).
`CC1CCCCC12NC(=O)N(CC(=O)NCc1ccccc1)C2=O` (stereo unspecified) came in with a kinetic solubility above 49.4 µg/mL.
The figure for `COc1ccc(OC)c(Nc2nc(N)nc(CCl)n2)c1` is 22.4 µg/mL (≈ 75.7 µM).
On to `COc1ccc(C(=O)Nc2ccc(Cl)c(S(=O)(=O)N3CCOCC3)c2)cc1`, for which the kinetic solubility is 2.9 µg/mL (≈ 7.06 µM).
The figure for `O=c1[nH]cnc2c1ncn2[C@@H]1C[C@@H](O)[C@H](CO)O1` is above 37.8 µg/mL.
In turn, `Cc1c(C(=O)NCc2ccco2)oc2ccccc12` showed a kinetic solubility of 6.3 µg/mL (≈ 24.7 µM).
`O=C(OCC(=O)c1ccc[nH]1)c1ccc([N+](=O)[O-])cc1`: the solubility (kinetic) came to 13.3 µg/mL (≈ 48.5 µM).
The compound `Cc1ccc(S(=O)(=O)NCc2ccncc2)cc1C` returned a solubility (kinetic) above 41.5 µg/mL.
The value for `CC(=O)Nc1ccc(N/C=C/C(=O)c2ccccc2)cc1` was 4.1 µg/mL (≈ 14.6 µM); that for `CCCS(=O)(=O)N1CCCC(C(=O)N2CCCCC2)C1` (stereo unspecified) was 43 µg/mL (≈ 142 µM); that for `COc1ccc2c(c1)C1=C(CC2)C(c2ccc(C)cc2)NC(=S)N1` (stereo unspecified) was 10.5 µg/mL (≈ 31.2 µM).
`O=C(NC1CCCCC1)[C@@H]1CSC2c3ccccc3C(=O)N21` (stereo partly specified) had a solubility (kinetic) of 47 µg/mL (≈ 149 µM).
The value for `Cc1ccccc1C(=O)NC(=S)Nc1ncccn1` was 15.6 µg/mL (≈ 57.3 µM); that for `COc1ccccc1N(CCOc1ccccc1)S(=O)(=O)c1ccccc1` was 3.9 µg/mL (≈ 10.2 µM).
As to `COCC(=O)N(Cc1cc2ccc(C)cc2[nH]c1=O)c1ccc(C)cc1C`, the kinetic solubility is 4.9 µg/mL (≈ 13.4 µM).
The value for `O=c1[nH]c(NCCO)nnc1Cc1ccccc1` was above 36.9 µg/mL; that for `O=C(NCCCN1CCCC1=O)Nc1ccc(Cl)cc1Cl` was above 49.5 µg/mL.
The value for `CC(NC(=O)c1cc2ccccc2o1)c1ccccc1` (stereo unspecified) was 37.6 µg/mL (≈ 142 µM).
As for `NC(=O)c1cccnc1Oc1ccc(Cl)cc1`, the kinetic solubility is above 37.3 µg/mL.
Consider `CN(C)CCNC(C(=O)Nc1cc(Cl)cc(Cl)c1)c1ccccc1` (stereo unspecified), for which the kinetic solubility is above 54.9 µg/mL.
The figure for `CCS(=O)(=O)N1CCC(C(=O)Nc2cccc(F)c2)CC1` is above 47.2 µg/mL.
The value for `COc1ccc(C(=O)NCCCNC(=O)c2cccnc2)cc1OC` was 44.5 µg/mL (≈ 130 µM); that for `CCOC(=O)C(=O)Nc1ccc(OCc2ccccc2)cc1` was 30.2 µg/mL (≈ 101 µM).
The compound `O=C(Cc1ccc([N+](=O)[O-])cc1)OCc1c(F)cccc1Cl` yielded a solubility (kinetic) below 0.7 µg/mL.
The value for `O=C1NC(c2ccc(Br)cc2)Oc2ccccc21` (stereo unspecified) was 2.1 µg/mL (≈ 6.9 µM); that for `COc1ccc(CNC(=O)COC(=O)C(CCSC)N2C(=O)c3ccccc3C2=O)cc1` (stereo unspecified) was above 68.5 µg/mL; that for `COC(=O)c1sc(-c2ccccc2)cc1NC(=O)C1CC1` was 0.7 µg/mL (≈ 2.32 µM).
With `Cc1c(C)n(CCO)c2ncnc(Nc3ccc(F)cc3)c12`, the solubility (kinetic) is above 45.1 µg/mL.
As for `CCN(CC)C(=O)CSc1nnc([C@@H](N)C(C)C)o1.Cl`, the kinetic solubility was above 48.4 µg/mL.
The figure for `O=c1oc(/C=C/c2ccc([N+](=O)[O-])s2)nc2ccccc12` is 0.5 µg/mL (≈ 1.67 µM); for `CCC(C(=O)Nc1cccnc1)c1ccccc1` (stereo unspecified) it is 34.3 µg/mL (≈ 143 µM); for `COc1cccc(NC(=O)COC(=O)CCC2CCCC2)c1` it is above 45.8 µg/mL.
The value for `CCOc1ccc(C(=O)COC(=O)CNC(=O)C2CCCCC2)cc1` was 9.5 µg/mL (≈ 27.3 µM); that for `CCOC(=O)N1CCN(C(=O)COC(=O)c2ccc(O)cc2O)CC1` was above 52.9 µg/mL.
Compound `Cn1cccc1C1C(C#N)=C(N)OC2=C1C(=O)CCC2` (stereo unspecified) had a solubility (kinetic) above 40.4 µg/mL.
The figure for `CCCc1cc(=O)[nH]c(SCC(=O)Nc2cc(C)on2)n1` is above 46.3 µg/mL; for `COc1cc(/C=C2\N=C(c3ccccc3)OC2=O)ccc1OC(C)=O` it is above 50.6 µg/mL.
The value for `N#Cc1ccc(C(=O)Nc2nc3ccccc3[nH]2)cc1` was 2.6 µg/mL (≈ 9.91 µM); that for `Nc1ccc(N2CCCC2)c(S(=O)(=O)Nc2cccc(C(F)(F)F)c2)c1` was 25.8 µg/mL (≈ 66.9 µM); that for `CCC(C)NC(=S)Nc1ccc(F)cc1` (stereo unspecified) was above 33.9 µg/mL.
The figure for `COc1cccc(CNC(=O)N2CCN(c3ccccc3C)CC2)c1` is 15.3 µg/mL (≈ 45.1 µM); for `CC(=O)c1c(C)[nH]c(C(=O)NCc2ccccc2F)c1C` it is 41.6 µg/mL (≈ 144 µM).
For `CCc1ccc(OCCOCCN2CCN(C)CC2)cc1.O=C(O)C(=O)O`, the kinetic solubility was 54 µg/mL.
The value for `O=C(CN1CCCCC1)Nc1nc(-c2ccc(Cl)cc2)cs1` was below 0.2 µg/mL; that for `CC(C)CNc1nc(N)c([N+](=O)[O-])c(NC2CCCCC2)n1` was below 0.1 µg/mL; that for `COc1ccccc1NS(=O)(=O)c1cc(NC(=O)c2cc(F)c(F)c(F)c2F)ccc1N1CCOCC1` was 3.6 µg/mL (≈ 6.67 µM).
The figure for `Cc1ccc(S(=O)(=O)N2CCCCC2)cc1NC(=O)COc1ccccc1` is 4.3 µg/mL (≈ 11.1 µM); for `Cc1nc(SCC(=O)Nc2cccc(S(=O)(=O)N3CCOCC3)c2)nc(C)c1C` it is 29.5 µg/mL (≈ 67.6 µM).
As for `CCc1ccc(OCC(O)CN2CCCC2)cc1.Cl` (stereo unspecified), the solubility (kinetic) was determined as 39.8 µg/mL.
The figure for `C#CCn1ccc(O)c(Cc2ccccc2)c1=O` is above 35.9 µg/mL; for `Cc1cc2ncn(CS(C)(=O)=O)c2cc1C` it is 34.3 µg/mL (≈ 144 µM).
The figure for `Cc1ccc(NC(=O)CNC(=O)c2ccc(C(C)(C)C)cc2)cc1S(=O)(=O)N1CCOCC1` is 16.1 µg/mL (≈ 34 µM); for `CCOC(=O)C1=C(O)/C(=C/c2cc(C)n(-c3ccccc3)c2C)N=C1C` it is 30.7 µg/mL (≈ 87.6 µM).
In the case of `Cn1cnc2c1c(=O)n(Cc1cccc(Cl)c1)c(=O)n2C`, the kinetic solubility was above 45.7 µg/mL.
As for `Cc1ccc(NC(=O)OCCNC(=O)OC(C)C)cc1`, the kinetic solubility was 33.1 µg/mL (≈ 118 µM).
Compound `CCNCCC(CCC(C)C)c1ccc2c(c1)OCO2` (stereo unspecified) registered a kinetic solubility of 33.7 µg/mL (≈ 121 µM).
For `COC1CCCN(Cc2nc(Cc3ccccc3F)no2)C1` (stereo unspecified), the kinetic solubility was 37.9 µg/mL (≈ 124 µM).
The value for `O=C(Cn1c(NCCO)nc2ccccc21)Nc1cccc(S(=O)(=O)N2CCCC2)c1` was 63.1 µg/mL (≈ 142 µM).
The figure for `CCOc1ccc(NC(=O)CNC(=O)c2ccc(OC)cc2)cc1` is 4.1 µg/mL (≈ 12.5 µM); for `O=C(O)c1ccccc1-c1ccccc1C(=O)Nc1ccc(F)cc1` it is above 50.3 µg/mL; for `CCOc1ccc(NC(=S)NC(=O)c2cccnc2)c([N+](=O)[O-])c1` it is 4.3 µg/mL (≈ 12.4 µM).
As to `Cc1cc(C)cc(NC(=O)Nc2cnccn2)c1`, the kinetic solubility came out at 2.4 µg/mL (≈ 9.91 µM).
The figure for `Cc1cccc(OCCCC(=O)N2CCCCCC2)c1C` is 26.9 µg/mL (≈ 92.9 µM); for `COc1ccc(C(=O)NC(C(=O)NCC2CCCO2)C(C)C)cc1` (stereo unspecified) it is above 50.2 µg/mL.
The value for `S=C(c1ccccc1)N1CCCC1` was above 28.7 µg/mL; that for `COc1cccc(-n2c(/C=C/c3ccccn3)nc3ccccc3c2=O)c1` was 0.5 µg/mL (≈ 1.41 µM).
As for `CNC(=O)c1c(NC(=O)C2=COCCO2)sc(C)c1C`, the kinetic solubility is above 44.5 µg/mL.
The value for `C/C(=N\O)c1noc(C)c1C(=O)Nc1nccs1` was 2 µg/mL (≈ 7.51 µM); that for `COC(=O)c1ccc(OCC(=O)NC2CCCCCCC2)cc1` was above 47.9 µg/mL.
The value for `CCC(C)NC(=O)C1c2ccccc2C(=O)N1Cc1ccccc1` (stereo unspecified) was 38.4 µg/mL (≈ 119 µM); that for `COc1ccc(C(C)=O)cc1Cc1c(O)[nH]c(=S)[nH]c1=O` was above 46 µg/mL; that for `COc1ccccc1C(=O)COC(=O)c1ccc(N(C)C)cc1` was 1.1 µg/mL (≈ 3.51 µM).
In turn, `CC(C)CC(=O)Nc1ccc([N+](=O)[O-])cc1Cl` registered a solubility (kinetic) of 9.8 µg/mL (≈ 38.2 µM).
The figure for `CCN(CC(=O)NC(=O)NC1CCCC1)Cc1ccccc1` is above 45.5 µg/mL.
The value for `Cc1ccsc1CN(C)CC(=O)Nc1ccccc1C(=O)NC1CC1` was above 53.6 µg/mL; that for `CCCN1CNc2c(c(=O)[nH]c(=S)n2CCc2ccccc2)C1` was 1.7 µg/mL (≈ 5.14 µM); that for `C#CC1(OC(=O)c2ccccc2)CC(C)N(C)CC1C.Cl` (stereo unspecified) was above 46.2 µg/mL.
`COc1ccccc1C(=O)OCC(=O)Nc1cccc(S(=O)(=O)NC2=NCCCCC2)c1` had a solubility (kinetic) above 68.9 µg/mL.
The value for `CSc1nccc(-c2c(-c3ccc(Cl)cc3)noc2C)n1` was 4.6 µg/mL (≈ 14.5 µM).
The figure for `N#Cc1nc(-c2cccc(Cl)c2)oc1N1CCC(C(N)=O)CC1` is 1.8 µg/mL (≈ 5.44 µM); for `C=CCNC(=O)C(=O)Nc1cc2c3c(c1)CCC(=O)N3CCC2` it is above 47 µg/mL.
The figure for `CCc1nc2ccccc2n1CC1CC1(Cl)Cl` (stereo unspecified) is 34.9 µg/mL (≈ 130 µM).
With `CC(=O)O.O=S(=O)(CCc1ccncc1)C1Cc2cccc3cccc1c23` (stereo unspecified), the kinetic solubility turned out to be 49.4 µg/mL.
The figure for `CC(=O)c1cccc(NC(=O)/C=C/c2ccc(S(=O)(=O)N3CCOCC3)cc2)c1` is 5.1 µg/mL (≈ 12.3 µM); for `Cc1onc(C(=O)N2CCN(c3ccccc3)CC2)c1[N+](=O)[O-]` it is above 47.4 µg/mL.
In turn, `COc1cc(NC(=O)CCCN2C(=O)NC(C)(C)C2=O)cc(OC)c1` gave a kinetic solubility of 49.6 µg/mL (≈ 142 µM).
For the compound `O=C(COC(=O)c1ccc(O)cc1)NC1CCCCCC1`, the solubility (kinetic) was above 43.7 µg/mL.
The figure for `O=[N+]([O-])c1ccc(Cl)c(CN2CCN(c3ncccn3)CC2)c1` is 35.1 µg/mL (≈ 105 µM); for `O=C(NCC1CCCCC1)c1cccnc1Cl` it is 31.7 µg/mL (≈ 125 µM).
